In patent US7666817B2, “Cellular libraries of peptide sequences (CLiPS) and methods of using the same” (The Regents of the University of California, priority 2005, dated 2010):

Target: T1, enteropeptidase (catalytic subunit light chain) (Bos taurus, UniProt P98072)
T1 construct: the catalytic subunit light chain of enteropeptidase (EP) (New England Biolabs); purchased New England Biolabs
Assay: CLiPS whole-cell assay, enteropeptidase cleavage of cell-surface displayed substrates (FACS)
Format: biochemical
Settings: E. coli displaying reporter-substrate, flow cytometry
Method: For screening and clone analysis, overnight cultures were subcultured by dilution into fresh medium (1:50) and grown for 2 hours. The subculture was then induced with 0.04% arabinose and incubated with shaking at room temperature. Cell aliquots were harvested washed with PBS (pH 8.0) and absorbance at 600 nm (OD600) was measured to estimated density. Cells were pelleted by centrifugation, the supernatant removed and the cells resuspended in reaction buffer ([…]). The enzyme was added, and the reaction mixture was incubated at room temperature on rotary shaker (60 rpm). To stop the reaction cells were removed and diluted 100-fold in PBS, pelleted by centrifugation, and resuspended in PBS containing SA-PE (50 nM). After incubation at room temperature (1 hr), cells were washed with PBS and analyzed or sorted using a FACSAria™ cell sorter.
For enteropeptidase cleavage assays, cultures were induced for 2 hr. The reaction buffer for enteropeptidase was 50 mM Tris-Cl pH 8.0 supplemented with 20 mM NaCl and 2 mM CaCl2. […]
(§1) Specifically, for each sample, conversion was determined by flow cytometry analyses using the relationship
[formula] where (FL−) is the fluorescence after incubating without enzyme, (FL+) is fluorescence after incubation with enzyme, and (FL0) is fluorescence of unlabeled cells. For the recombinant FRET protein reactions, conversion was calculated by dividing the ratiometric FRET signal (yellow fluorescence/cyan fluorescence) by the FRET ratio that results from complete cleavage (Felber et al., Biotechniques 36:878-85 (2004)). For synthetic peptide reactions, conversion was calculated by dividing the fluorescence increase by the fluorescence change due to complete hydrolysis. […]
Given the utility of fluorescence-activated cell sorting (FACS) as a quantitative library screening tool, peptidase activity was assayed by displaying reporter-substrates on the surface of Esherichia coli (FIG. 1, panel A). […] In this way, protease activity towards a given substrate would be detectable by monitoring whole-cell fluorescence using FACS. […]

T1 sequence (P98072 801-1035 limits assumed): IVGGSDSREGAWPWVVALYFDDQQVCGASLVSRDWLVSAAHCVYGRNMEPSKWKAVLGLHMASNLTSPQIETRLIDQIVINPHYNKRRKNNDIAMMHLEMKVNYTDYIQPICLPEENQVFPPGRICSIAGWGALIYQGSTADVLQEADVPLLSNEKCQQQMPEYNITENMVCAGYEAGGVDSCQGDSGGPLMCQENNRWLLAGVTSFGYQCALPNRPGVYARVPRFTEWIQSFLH

change in mean fluorescence intensity after incubation with enteropeptidase before SAPE labeling | Substance
roughly twenty-fold decrease | DDDDKGGQS [Canonical, reference compound]
minimal change in fluorescence | GGQSGQ

Same assay, conditions: cell-surface displayed substrates, time-dependent conversion fit to Michaelis-Menton model

Substance | second order rate constant (kcat/KM) relative to canonical substrate DDDDK [fold]
SSGDRMWGG [EP 4.3] | 13

Tested on: tobacco etch virus protease (TEV)
Assay: Dual-signal CLiPS, TEV cleavage of cell-surface displayed substrates
Format: biochemical
Settings: TEVopt library clones; 2 hour incubation with 2 units of TEV; Guava EasyCyte plate reading cytometer
Method: Construction of a control plasmid (pBSGXP2) expressing a fusion of the streptavidin-binding peptide (WCHPMWEVMCLR) (SEQ ID NO:34) (Rice et. al. 2006) and a GGSGGS (SEQ ID NO:01) sequence flanked by flexible linkers on the amino terminus of circularly permuted outer membrane X (CPX) and a binding peptide of SLP-76 (P2) on the carboxy-terminus was performed using primers 1, 2, and 3 with primers 4 and 5. […] Products were digested with SfiI and ligated to similarly digested pBAD33. A substrate library (pBS5XP2) of the form X5, where X is any amino acid, was constructed using PCR with a synthetic oligonucleotide incorporating NNS codons (primer 9) along with primers 1 and 8 (Table 2). The product was digested with SfiI and ligated into a similarly digested pBAD33 plasmid. Transformation of the plasmid library into electrocompetent MC1061 yielded 6×10^7 colony forming units.
A second substrate library (pBSToptP2) was created using primer 10 with primers 1 and 8. The product was digested with SfiI and ligated into a similarly digested pBAD33 plasmid. Transformation of the plasmid library into electrocompetent MC1061 yielded 5×10^7 colony forming units.
Streptavidin conjugated phycoerythrin (SAPE) was used for labeling streptavidin binding affinity ligand on the N- and C-termini of CPX (FIG. 15). […] Of the three fluorescent proteins AlajGFP-Mona gave a higher fluorescence and was used for all labeling. The resulting CPX scaffold required a 3 hr induction time due to the additional peptide that was fused to the C-terminus. For optimum labeling of cells without protease reaction, the cells were incubated for 1 hr at 22° C. with SAPE (50 nM) and AlajGFPM (250 nM). […] For the described example below 1 hr incubation was used.
(§2) For screening and clone analysis, overnight cultures were subcultured by dilution into fresh medium (1:50) and grown for 2 hrs at 37° C. The subculture was induced with 0.1% arabinose and incubated with shaking at room temperature for 3 hrs. Cell aliquots were washed with PBS (pH 8.0), and optical density at 600 nm (OD600) was measured to estimate cell concentration. Cells (10^8) were pelleted by centrifugation, the supernatant was removed, and the cells were resuspended in reaction buffer (10 μL). Following addition of the enzyme, the reaction mixture was incubated at room temperature on a rotary shaker. Cells were removed and diluted 100-fold in PBS to stop the reaction, pelleted by centrifugation, and resuspended in PBS containing SA-PE (50 nM) and AlajGFP-MONA. After incubation at room temperature (1 hr), cells were washed with PBS and analyzed or sorted using a FACSAria™ cell sorter (Becton, Dickinson and Company).
as §1
(§3) [formula] where (FL−) is the fluorescence after incubating without enzyme, (FL+) is fluorescence after incubation with enzyme, and (FL0) is fluorescence of unlabeled cells. For the recombinant FRET protein reactions, conversion was calculated by dividing the ratiometric FRET signal (yellow fluorescence/cyan fluorescence) by the FRET ratio that results from complete cleavage (Felber et al., Biotechniques 36:878-85 (2004)). For synthetic peptide reactions, conversion was calculated by dividing the fluorescence increase by the fluorescence change due to complete hydrolysis. The reported enteropeptidase KM for the physiological substrate tripsinogen is 17 μM (Light et al., J Biol Chem 259:13195-8 (1984)), but 600 μM for short DDDDK (SEQ ID NO:02) peptides (Lu et al., J Mol Biol 292:361-73 (1999)). Given KM for short peptides is much larger than the substrate concentrations that were used (<5 μM), the Michaelis-Menton model simplifies to
The reaction buffer for TEV assays was 50 mM Tris-Cl pH 8.0 supplemented with 20. mM NaCl and 2 mM CaCl2. […]

tobacco etch virus protease (TEV), sequence (P04517 2038-2255 limits assumed): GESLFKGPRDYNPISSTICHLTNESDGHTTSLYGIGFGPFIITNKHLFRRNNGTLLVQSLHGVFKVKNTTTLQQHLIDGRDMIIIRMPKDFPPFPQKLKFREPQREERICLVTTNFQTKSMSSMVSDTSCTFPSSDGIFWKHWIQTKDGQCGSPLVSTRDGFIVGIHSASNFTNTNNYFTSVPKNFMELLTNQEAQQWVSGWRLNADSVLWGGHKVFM

Substance | % Conversion [%]
ALYIQG [A3] | 92.212
DLYWQG [C3] | 73.3768
DVYVQG [A2] | 52.6409
ELYAQG [C5] | 58.8389
ELYWQG [C4] | 68.9173
ENLYFQS [Control, reference compound] | 66.3577
EVYVQG [B6] | 61.0145
FLYLQG [A1] | 91.8387
LLYIQG [D4] | 51.6773
QLYFQS [C6] | 61.7894
SLYVQG [E4] | 86.3465
SLYWQG [D5] | 71.6599
VLYLQS [A4] | 85.4432
VLYTQG [E6] | 54.8951
WLYLQG [D1] | 68.0478

Same assay, conditions: top TEV substrates from 5X library; 1 hr with 10 units of TEV

Substance | % Conversion [%]
DRELY [F04] | 79
EEAVL [H07] | 71
EEELY [B02] | 72
GEDLL [F09] | 71
LEQLI [B09] | 76
PEVIY [C10] | 81
WEPLW [H08] | 73
WESLY [E11] | 77

Target: T2, MMP-1 (Homo sapiens, UniProt P03956)
T2 sequence (P03956 100-469): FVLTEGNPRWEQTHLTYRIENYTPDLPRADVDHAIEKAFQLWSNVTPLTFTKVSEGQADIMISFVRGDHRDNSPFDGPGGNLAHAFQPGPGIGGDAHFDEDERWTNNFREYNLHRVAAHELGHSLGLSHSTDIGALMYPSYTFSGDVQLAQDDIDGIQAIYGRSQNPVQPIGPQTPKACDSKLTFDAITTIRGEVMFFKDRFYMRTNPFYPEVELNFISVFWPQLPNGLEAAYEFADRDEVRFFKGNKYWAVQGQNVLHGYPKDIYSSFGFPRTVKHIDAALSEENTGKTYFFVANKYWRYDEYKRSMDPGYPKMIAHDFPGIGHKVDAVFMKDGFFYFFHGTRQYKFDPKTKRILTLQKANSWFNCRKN
Assay: Dual-signal CLiPS, MMP-1 cleavage of cell-surface displayed substrates
Format: biochemical
Settings: MMP substrates from sort 4 of 5X library; cells incubated with 1.5 pM MMP-1
Method: as §2, §1, §3
The MMP-1 assays were performed by incubating cells with 1.5 pM MMP-1. Sorts for hydrolysis were performed after 16 hrs, 19 hrs, and 16 hrs for sorts 1, 3 and 5, respectively (FIGS. 9 and 10). Enrichment after 4 sorts can be seen by the fluorescence shift due to MMP-1 incubation (FIG. 10) and this population was sorted a final time for hydrolyzed substrates. These clones were sequences and assayed for conversion (Table 8). […] Many of these sequences have been reported as MMP-1 substrates. However, substrates of MMP-1 with amino acids M and L at positions P1 and P3 have not previously been reported.

% Conversion [%] | Substance
65.9 | MPLVM
42.8 | MPVVL
69.9 | PMAVI
50.4 | PMAVT
72.9 | PVAMR
78.9 | PVNVV
49.6 | PVPMV
41.7 | TPLAL
76 | VPVNM
36.6 | VPVVM

Tested on: enteropeptidase
Assay: not given
Settings: reported values (Light et al. 1984; Lu et al. 1999); cited from earlier work

enteropeptidase, sequence (P98072 801-1035 limits assumed): as the sequence (P98072 801-1035 limits assumed) above

Substance | Km [µM]
DDDDKGGQS [Canonical, reference compound] | 600
tripsinogen: physiological substrate of enteropeptidase | 17

Target: T3, enteropeptidase (Bos taurus, UniProt P98072)
T3 construct: the catalytic subunit light chain of enteropeptidase (EP) (New England Biolabs); purchased New England Biolabs
Assay: Enteropeptidase cleavage of soluble CyPet-YPet FRET fusion protein substrates (fluorimetry)
Format: biochemical
Settings: CyPet-YPet fusion protein substrate ~0.5 μM, 0.29 nM enteropeptidase
Excerpt: Substrates EP2.1, EP4.1, EP4.2, and EP4.3 identified for enteropeptidase by CLiPS were amplified with YPet using reverse primer 7 with forward primers 8, 9, 10, and 11, respectively (Table1). The canonical EP substrate was amplified as a fusion to YPet using primers 7 and 12 (Table 1). As a negative control, a GSGSGS (SEQ ID NO:18) linker was substituted for the six amino acid substrate sequence using primers 7 and 13 (Table 1). These products were digested with kpnI and sphI and ligated to similarly digested plasmid containing CyPET to yielded plasmids pBC21Y, pBC41Y, pBC42Y, pBC43Y pBCEPY and pBCGSY.
Overnight cultures of MC1061 transformed with the FRET substrate encoding expression vectors described above were subcultured 1:50 and grown for 2 hrs. […] Reactions were performed in 100 μL of enteropeptidase reaction buffer with ˜0.5 μM fusion protein, as determined using the extinction coefficient of YPet at 514 nm (Nguyen et al., Nat Biotechnol 23:355-60 (2005)) and Beer's law. Enteropeptidase was added to each reaction to a final concentration of 0.29 nM and fluorescence emission at 475 nm (cyan) and 527 nm (yellow) was monitored upon excitation at 433 nm using a Safire fluorimeter (Tecan).
[formula] where (FL−) is the fluorescence after incubating without enzyme, (FL+) is fluorescence after incubation with enzyme, and (FL0) is fluorescence of unlabeled cells. […]

T3 sequence (P98072 801-1035 limits assumed): as above

Substance | cleavage rate relative to DDDDK [fold]
SSGDRMWGG [EP 4.3] | 17
